Results reported in patent publication US12419870B2, “Compositions and methods for immune cell modulation in adoptive immunotherapies” (Fate Therapeutics, Inc., priority 2016, dated 2025).
Structures can show the parent of a compound that is named as a salt.

Legend:
viable CD8+ population = assay: In vitro T cell culture compound screen, flow cytometry for cells co-expressing CCR7 and CD62L in CD8+ cells; format: cell-based, human; settings: 10 μM, about 6 days; for CD8 Hit: anti-CD3/anti-CD28 beads, hit criteria: Z-score > +2 for percent or relative absolute number of CCR7+CD62L+ cells; for number or ratio of cells co-expressing CCR7 and CD62L: viable CD8+ population
From the text: (§1) In Vitro T Cell Culture. Fresh leukopaks (AllCells, Alameda, CA) were obtained from healthy donors, from which T cells were negatively selected using the EasySep Human T Cell Enrichment Kit (Stem Cell Technologies, Vancouver, Canada). The freshly isolated T cells were aliquoted and cryopreserved. On the day the screens were initiated, T cells were thawed and washed into X-Vivo 15 with 5% human AB serum, IL-2, pen/strep, and additional supplements. Cells were dispensed into flat-bottom 384-well plates at 5×10^5 cells/ml with anti-CD3/Anti-CD28 dynabeads (ThermoFisher, Waltham, MA) at a 3:1 bead-to-cell ratio. Individual compounds were added at a final concentration of 10 μM to each well from column 3 to column 22 of each plate. Positive and negative controls were added to additional wells. Cells were incubated for about 6 days at 37 degrees with 5% CO2.
(§2) Flow Cytometry. On Day 6 of culture, cells were stained with a fixable viability marker and fluorophore-conjugated antibodies: CD3, CD4, CD8, CD45RA, CD45RO, CD62L, CCR7, CD27, and CD122 (BD Biosciences, San Jose, CA; and BioLegend, San Diego, CA). Fluorescent absolute counting beads (Spherotech, Lake Forest, IL) were added just prior to acquisition. Data acquisition was performed on a BD Fortessa X-20 (BD Biosciences) and data were analyzed using Treestar software (FlowJo, Ashland, OR) and Spotfire (Tibco, Boston, MA).
(§3) These cells are characterized by expression of CCR7 and CD62L. Therefore, cells co-expressing both of these identifying markers were evaluated. Within the viable CD4+ population and viable CD8+ population, the percent of cells co-expressing CCR7 and CD62L was determined. The expression of either CD62L or CCR7 on T cells, as indicative of the desired T cell subsets, have been described as having favorable functional characteristics for CAR-T cell therapy, and potentially other adoptive T cell therapies.
(§4) The number of events in each of these gates relative to the number of absolute counting beads in each sample was calculated, defining a relative measure of the absolute number of naïve, stem cell memory, or central memory T cells within the CD4+ and/or CD8+ populations. A z-Score relative to the screened compound samples within each 384-well plate was calculated for each of these four values: 1) percent CCR7+CD62L+ in CD4+, 2) percent CCR7+CD62L+ in CD8+, 3) absolute relative number of CCR7+CD62L+ in CD4+, and 4) absolute relative number of CCR7+CD62L+ in CD8+(FIGS. 1A and 1i). Z-scores were also calculated for the percent viability of all cells within each sample and the relative absolute number of cells within each sample. A “Z-Score” is a statistical measurement of a score's relationship to the mean in a group of scores. A Z-score of 0 means the score is the same as the mean. A Z-score can also be positive or negative, indicating whether it is above or below the mean and by how many standard deviations.

viable CD4+ population = assay: In vitro T cell culture compound screen, flow cytometry for cells co-expressing CCR7 and CD62L in CD4+ cells; format: cell-based, human; settings: 10 μM, about 6 days; for CD4 Hit: anti-CD3/anti-CD28 beads, hit criteria: Z-score > +2 for percent or relative absolute number of CCR7+CD62L+ cells; for number or ratio of cells co-expressing CCR7 and CD62L: viable CD4+ population
From the text: as §1, §2, §3, §4

K562-CD19 = assay: Secondary tumor rechallenge of mice that survived primary tumor challenge; format: in vivo, NSG mice; settings: 21 day post challenge with secondary tumor
Nalm-6-luc = assay: In vivo tumor clearance by compound-treated CAR-T cells in tumor-bearing NSG mice; settings: 0.2×10^6 CD4 and CD8 CAR-T cells 1:1, retroorbital, one week after tumor injection
Description: CAR-T cells were generated from CD4+ and CD8+ T cells that were separately activated and expanded in vitro. The cells were transduced with the CAR-2 construct (FIG. 2) one day after activation and then replated into 24-well GREX plates with or without the compounds. Half the media was replaced every two days thereafter until harvest one week post-activation. One week after tumor injection, the NSG mice were treated with 0.2×10^6 CD4 and CD8 CAR-T cells mixed at a 1:1 ratio via retroorbital injection. The mice were imaged periodically to determine tumor burden.

CD8+ T-cells [1] = assay: Genome-wide expression on Human Transcriptome Array microarray chips; settings: 20 nM rapa, 10 μM dmPGE2 or both
Description: (§5) In order to perform these studies, isolated CD8 T cells were activated in bulk on day 0 using CTS (Cell Therapy Systems) Dynabeads™ CD3/CD28 (Thermo Fisher Scientific, Waltham, MA) in T cell media supplemented with IL-2. On day 1, cells were transduced with the CAR Construct 1 shown in FIG. 2 and cell density was adjusted to 0.5×10^6/ml and 10^6 cells were seeded into 12 well plates in the presence of vehicle, 20 nM rapa, 10 μM dmPGE2 or both compounds at the same concentrations. On day 4, cells were transferred into 6-well plates and 2 ml of media was added to each well. On day 6 another 2 ml of media was added to each well. On day 8, cells were analyzed on a flow cytometer for cell surface expression of CD27.

CD8 T cells = assay: CD27 cell surface expression on CAR-transduced CD8 T cells by flow cytometry; format: cell-based, human; settings: 20 nM rapa, 10 μM dmPGE2 or both; day 8; two donors; relative to vehicle (DMSO)
Description: as §5

CD8 CAR-T cells = assay: Exhaustion marker (PD-1, Tim-3) expression on CAR-T cells by flow cytometry; format: cell-based, human; settings: 20 nM rapa, 10 μM dmPGE2 or both; two donors; relative to vehicle
From the text: T cell dysfunction due to ‘exhaustion’ is a state that can preclude adequate control of cancer or infection.

Nalm6 tumor cells = assay: In vitro serial killing assay of CAR-T cells co-cultured with tumor cells; format: cell-based, human; settings: three rounds of in vitro killing
From the text: An in vitro serial killing assay, where CAR-T cells are allowed to “clear” tumor cells in vitro over multiple rounds, is a model that can assess CAR-T expansion in the presence of tumor cells that express the antigen recognized by the CAR. […] After thawing, the CAR-T cells were co-cultured with Nalm6 tumor cells that express endogenous CD19 and transgenic mKate2, a far-red fluorescent protein. Expression of eGFP in the CAR-T cells and mKate2 in the Nalm6 target cells allows easy and reliable identification and counting of both cell types in the serial killing assay. Prior to starting each round of killing, cell numbers were adjusted so that the same ratio of CAR-T cell to Nalm6 target cell was maintained across the CAR-T cell cultures generated from different compound treatments.

CD8+ T-cells [2] = assay: Gene panel expression changes on Affymetrix human transcriptome arrays; format: cell-based; settings: fold change relative to vehicle treatment
Description: In order to perform these studies, isolated CD8 T cells were activated in bulk on day 0 using CTS (Cell Therapy Systems) Dynabeads™ CD3/CD28 (Thermo Fisher Scientific, Waltham, MA) in T cell media supplemented with IL-2. On day 1, cells were transduced with the CAR Construct 1 shown in FIG. 2 and cell density was adjusted to 0.5×10^6/ml and 10^6 cells were seeded into 12 well plates in the presence of vehicle, 20 nM rapa, 10 μM dmPGE2 or both compounds at the same concentrations. On day 4, cells were transferred into 6-well plates and 2 ml of media was added to each well. On day 6 another 2 ml of media was added to each well.
The RNA was analyzed on Affymetrix human transcriptome arrays and fold changes (relative to vehicle treatment) of the genes in the panel were determined.

Compound	CD8 Hit (viable CD8+ population)	CD4 Hit (viable CD4+ population)	number or ratio of cells co-expressing CCR7 and CD62L (viable CD8+ population)	further results
CN[C@H]1CC[C@@H](c2ccc(Cl)c(Cl)c2)c2ccccc21 [Sertraline]	CD8	CD4		
Oc1cccc(-c2nc(N3CCOCC3)c3oc4ncccc4c3n2)c1 [PI-103]	CD8	CD4		mice with no detectable tumor (K562-CD19): 60%
COc1cc2nc(N3CCCN(C)CC3)nc(NC3CCN(Cc4ccccc4)CC3)c2cc1OC [BIX01294]		CD4	increased	
COc1ccc(-c2cc3nccn3c(Nc3ncccc3C(N)=O)n2)cc1OC [BAY 61-3606]		CD4	increased	
C/C=C(/C)C(=O)O[C@H]1C(C)=C2[C@H]([C@@H]1OC(=O)CCCCCCC)[C@@](C)(OC(C)=O)C[C@H](OC(=O)CCC)[C@@]1(O)[C@H]2OC(=O)[C@@]1(C)O [Thapsigargin]	CD8		increased	
C=CC1=C(C)c2cc3[nH]c(cc4nc(cc5[nH]c(cc1n2)c(C)c5CCC(=O)O)C(CCC(=O)O)=C4C)c(C)c3C=C [Protoporphyrin IX disodium]		CD4	increased	
Oc1c(I)cc(Cl)c2cccnc12 [8-Quinolinol,5-chloro-7-iodo-]	CD8	CD4	increased	number or ratio of cells co-expressing CCR7 and CD62L (viable CD4+ population): increased
CCCc1c(-c2ccc(O)cc2)nn(-c2ccc(O)cc2)c1-c1ccc(O)cc1 [1,3,5-tris(4-hydroxyphenyl)-4-propyl-1H-pyrazole]		CD4	increased	
CN(C)c1ccc(C=C2C(=O)Nc3ccccc32)cc1 [SU 4312]	CD8		increased	
Oc1c(Cl)cc(Cl)c2cccnc12 [8-Quinolinol,5,7-dichloro-]	CD8	CD4	increased	number or ratio of cells co-expressing CCR7 and CD62L (viable CD4+ population): increased
CC[n+]1c(/C=C/C=C2/N(C)c3ccccc3C2(C)C)sc2ccccc21.[I-] [AC-93253 iodide]	CD8	CD4	increased	number or ratio of cells co-expressing CCR7 and CD62L (viable CD4+ population): increased
CCCc1nc2c(C)cc(-c3nc4ccccc4n3C)cc2n1Cc1ccc(-c2ccccc2C(=O)O)cc1 [Telmisartan]		CD4	increased	
O=C(N/N=C/c1ccc([N+](=O)[O-])o1)c1ccc(O)cc1 [Nifuroxazide]	CD8		increased	
Nc1cccc(-c2cc3c(Oc4cccc(O)c4)ncnc3[nH]2)c1 [TWS119]				tumor clearance / tumor control by treated CAR-T cells (Nalm-6-luc): minimal tumor control
N#CC(=C(/N)Sc1ccccc1N)/C(C#N)=C(\N)Sc1ccccc1N [U0126]		CD4	increased	tumor clearance / tumor control by treated CAR-T cells (Nalm-6-luc): minimal tumor control
C[C@]12CC[C@@H]3c4ccc(O)cc4C[C@@H](CCCCCCCCC[S+]([O-])CCCC(F)(F)C(F)(F)F)[C@H]3[C@@H]1CC[C@@H]2O (some centres unmarked) [Fulvestrant]	CD8		increased	
O=C(O)Cc1cc(I)c(Oc2ccc(O)c(I)c2)c(I)c1 [Tiratricol]	CD8	CD4	increased	number or ratio of cells co-expressing CCR7 and CD62L (viable CD4+ population): increased
C=CCc1cccc(/C=N/NC(=O)CN2CCN(Cc3ccccc3)CC2)c1O [PAC-1]		CD4	increased	
CCC(CO)Nc1nc(NCc2ccccc2)c2ncn(C(C)C)c2n1 (stereo in doubt) [Roscovitine, (S)-Isomer]		CD4	increased	
Nc1ncn([C@@H]2O[C@H](CO)[C@@H](O)[C@H]2O)c(=O)n1 [5-Azacytidine]	CD8	CD4	increased	number or ratio of cells co-expressing CCR7 and CD62L (viable CD4+ population): increased
Diethylenetriaminepentaacetic acid, penta sodium	CD8	CD4	increased	number or ratio of cells co-expressing CCR7 and CD62L (viable CD4+ population): increased
CO[C@H]1C[C@@H]2CC[C@@H](C)[C@@](O)(O2)C(=O)C(=O)N2CCCC[C@H]2C(=O)O[C@H]([C@H](C)C[C@@H]2CC[C@@H](O)[C@H](OC)C2)CC(=O)[C@H](C)/C=C(\C)[C@@H](O)[C@@H](OC)C(=O)[C@H](C)C[C@H](C)/C=C/C=C/C=C/1C [rapamycin]				total number of genes down-regulated more than 2 fold compared to vehicle control (CD8+ T-cells [1]): 284; total number of genes up-regulated more than 2 fold compared to vehicle control (CD8+ T-cells [1]): 215; CD27 expression, relative MFI (vehicle defined as 1) (CD8 T cells): approximately 2 fold
CC(C)(C)c1ccc(C(O)CCCN2CCC(C(O)(c3ccccc3)c3ccccc3)CC2)cc1 (centres unmarked) [Terfenadine]		CD4	increased	
CCCCC(C)(C)[C@H](O)/C=C/[C@H]1[C@H](O)CC(=O)[C@@H]1C/C=C\CCCC(=O)O [dmPGE2, 16,16-dimethyl Prostaglandin E2]				PD-1 expression (CD8 CAR-T cells): decreased; Tim-3 expression (CD8 CAR-T cells): no effect; clearing of target cells over time by previously treated CAR-T cells (Nalm6 tumor cells): successfully cleared target cells; BLIMP-1 expression (CD8+ T-cells [2]): slightly upregulated; total number of genes down-regulated more than 2 fold compared to vehicle control (CD8+ T-cells [1]): 38; total number of genes up-regulated more than 2 fold compared to vehicle control (CD8+ T-cells [1]): 71; CD27 expression, relative MFI (vehicle defined as 1) (CD8 T cells): no increase
N.S=C(S)N1CCCC1 [1-Pyrrolidinecarbodithioic acid, ammonium salt]		CD4	increased	
CC[N+](C)(C)c1cccc(O)c1 [Edrophonium chloride]	CD8		increased	
NC1CCN(c2nc3c(cc2F)c(=O)c(C(=O)O)cn3-c2ccc(F)cc2F)C1 (centres unmarked) [Tosufloxacin hydrochloride]		CD4	increased	
2-Naphthacenecarboxamide, 7-chloro-4-(dimethylamino)-1,4,4a,5,5a,6,11,12a-octahy	CD8		increased	
Sc1ncnc2nc[nH]c12 [6-Mercaptopurine]	CD8	CD4	increased	number or ratio of cells co-expressing CCR7 and CD62L (viable CD4+ population): increased
CC(C)C1CCC2(CO2)C2C(=O)OCC(C(=O)O)=CC12 (centres unmarked) [Heptelidic acid]	CD8	CD4	increased	number or ratio of cells co-expressing CCR7 and CD62L (viable CD4+ population): increased
